The values below come from ChEMBL document CHEMBL2074153, “Identification of organic anion transporting polypeptide 4 (Oatp4) as a major full-length isoform of the liver-specific transporter-1 (rlst-1) in rat liver” (FEBS Lett, 2000).

Series [1] has as its target T1, Solute carrier organic anion transporter family member 1B2 (Rattus norvegicus, UniProt Q9QZX8).
T1 sequence (Q9QZX8 whole entry): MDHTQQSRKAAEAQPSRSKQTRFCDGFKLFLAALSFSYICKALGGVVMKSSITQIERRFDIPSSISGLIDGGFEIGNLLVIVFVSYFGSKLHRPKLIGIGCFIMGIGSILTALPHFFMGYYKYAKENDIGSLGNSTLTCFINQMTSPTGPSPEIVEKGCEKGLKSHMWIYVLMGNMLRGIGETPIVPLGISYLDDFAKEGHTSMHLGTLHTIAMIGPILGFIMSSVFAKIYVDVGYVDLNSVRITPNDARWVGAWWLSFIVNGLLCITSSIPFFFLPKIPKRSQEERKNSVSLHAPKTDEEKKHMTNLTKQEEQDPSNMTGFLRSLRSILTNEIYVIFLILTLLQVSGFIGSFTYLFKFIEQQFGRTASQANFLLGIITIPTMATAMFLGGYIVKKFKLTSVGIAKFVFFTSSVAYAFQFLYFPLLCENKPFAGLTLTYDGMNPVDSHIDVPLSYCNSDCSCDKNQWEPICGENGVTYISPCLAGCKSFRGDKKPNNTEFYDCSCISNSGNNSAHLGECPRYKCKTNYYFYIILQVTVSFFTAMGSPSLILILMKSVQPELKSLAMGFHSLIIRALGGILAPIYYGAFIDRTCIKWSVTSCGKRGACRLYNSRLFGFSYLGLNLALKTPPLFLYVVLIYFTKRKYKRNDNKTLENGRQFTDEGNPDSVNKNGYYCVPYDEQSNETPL
In words: (§1) TP_TRANSPORTER: uptake in Xenopus laevis oocytes. The class given is functional, cell-based. The following applies: oocyte.

Substrate in series [2]: O=C1OC(c2ccc(O)c(S(=O)(=O)O)c2)(c2ccc(O)c(S(=O)(=O)O)c2)c2c(Br)c(Br)c(Br)c(Br)c21
The description is as §1. The class given is functional, cell-based, Oocyte.

Turning to `N[C@@H](Cc1cc(I)c(Oc2cc(I)c(O)c(I)c2)c(I)c1)C(=O)O` [LEVOTHYROXINE], the Activity result in series [1] was “substrate [+]”.

Take `N[C@@H](Cc1cc(I)c(Oc2ccc(O)c(I)c2)c(I)c1)C(=O)O` [LIOTHYRONINE]: the Activity result in series [1] was “substrate [+]”.

B1: Solute carrier organic anion transporter family member 1B2 (Rattus norvegicus) (protein)
chain: MDHTQQSRKAAEAQPSRSKQTRFCDGFKLFLAALSFSYICKALGGVVMKSSITQIERRFDIPSSISGLIDGGFEIGNLLVIVFVSYFGSKLHRPKLIGIGCFIMGIGSILTALPHFFMGYYKYAKENDIGSLGNSTLTCFINQMTSPTGPSPEIVEKGCEKGLKSHMWIYVLMGNMLRGIGETPIVPLGISYLDDFAKEGHTSMHLGTLHTIAMIGPILGFIMSSVFAKIYVDVGYVDLNSVRITPNDARWVGAWWLSFIVNGLLCITSSIPFFFLPKIPKRSQEERKNSVSLHAPKTDEEKKHMTNLTKQEEQDPSNMTGFLRSLRSILTNEIYVIFLILTLLQVSGFIGSFTYLFKFIEQQFGRTASQANFLLGIITIPTMATAMFLGGYIVKKFKLTSVGIAKFVFFTSSVAYAFQFLYFPLLCENKPFAGLTLTYDGMNPVDSHIDVPLSYCNSDCSCDKNQWEPICGENGVTYISPCLAGCKSFRGDKKPNNTEFYDCSCISNSGNNSAHLGECPRYKCKTNYYFYIILQVTVSFFTAMGSPSLILILMKSVQPELKSLAMGFHSLIIRALGGILAPIYYGAFIDRTCIKWSVTSCGKRGACRLYNSRLFGFSYLGLNLALKTPPLFLYVVLIYFTKRKYKRNDNKTLENGRQFTDEGNPDSVNKNGYYCVPYDEQSNETPL
On to B1, for which the Michaelis constant (Km) in series [2] was found to be 1.1 µM.
